Earlier results, collected in patent US6887894B2, “Use of lipoic acid for improving the bioavailability of mineral salts” (BASF Aktiengesellschaft, priority 2000, dated 2005).

Assays:
[1] = in vivo; cited from earlier work
[2] = in vivo; cited from earlier work; remark: listed apart in the source
[3] = pigs; cited from earlier work
[4] = growing rats, suboptimal Zn supply, 1% citric acid added to phytic-acid-rich corn-germ-based diets; cited from earlier work
[5] = in vivo; cited from earlier work; remark: listed apart in the source

## O=C1O[C@H]([C@@H](O)CO)C(O)=C1O [Ascorbic acid]
[1]
  effect on bioavailability of dietary zinc: does not change
[2]
  effect on bioavailability of inorganic iron: increases

## O=C(O)CC(O)(CC(=O)O)C(=O)O [citric acid]
[3]
  effect on Zn utilization: positive effects
[4]
  Zn status (plasma Zn concentration, alkaline phosphatase activity, metallothioneine concentration in the jejunum): moderate improvement

## CCC(=O)[O-].CCC(=O)[O-].[Zn+2] [zinc propionate]
[5]
  bioavailability of Zn2+ from organic or inorganic sources: roughly comparable
